In PubChem BioAssay (NCI):
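Tested at 5 concentrations; 48 h exposure; 96-well plates; endpoints linearly interpolated, else capped at highest concentration. TGI: concentration producing complete growth inhibition.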

What was measured:
Experiment in all cases: inhibition of tumour cell growth, NCI panel, 48 h
[1] = test system: LXFL 529 NSCLC
[2] = test system: SK-OV-3 ovarian
[3] = test system: UACC-257 melanoma
[4] = test system: UACC-62 melanoma
[5] = test system: LOX IMVI melanoma
[6] = test system: ACHN renal
[7] = test system: NCI-H226 lung
[8] = test system: NCI-H23 lung
[9] = test system: SF-295 CNS
[10] = test system: M19-MEL melanoma
[11] = test system: OVCAR-4 ovarian
[12] = test system: SNB-19 CNS
[13] = test system: HOP-62 NSCLC
[14] = test system: HCT-15 colon
[15] = test system: SW-620 colon
[16] = test system: CCRF-CEM leukemia
[17] = test system: RXF-631 renal
[18] = test system: HCT-116 colon
[19] = test system: M14 melanoma
[20] = test system: HOP-18 NSCLC
[21] = test system: DMS 114 small cell lung
[22] = test system: COLO 205 colon
[23] = test system: OVCAR-3 ovarian
[24] = test system: KM12 colon
[25] = test system: NCI-H460 lung
[26] = test system: K-562 leukemia
[27] = test system: HL-60(TB) leukemia
[28] = test system: HT29 colon
[29] = test system: SF-268 CNS
[30] = test system: SN12C renal
[31] = test system: HCC-2998 colon
[32] = test system: SK-MEL-5 melanoma
[33] = test system: CAKI-1 renal
[34] = test system: KM20L2 colon
[35] = test system: SNB-75 CNS
[36] = test system: SK-MEL-28 melanoma
[37] = test system: MALME-3M melanoma
[38] = test system: RXF 393 renal
[39] = test system: DLD-1 colon
[40] = test system: HOP-92 NSCLC
[41] = test system: SR leukemia
[42] = test system: OVCAR-5 ovarian
[43] = test system: A549 NSCLC
[44] = test system: SF-539 CNS
[45] = test system: U251 CNS
[46] = test system: TK-10 renal
[47] = test system: MOLT-4 leukemia
[48] = test system: IGROV1 ovarian
[49] = test system: RPMI-8226 leukemia
[50] = test system: OVCAR-8 ovarian
[51] = test system: EKVX NSCLC
[52] = test system: 786-0 renal
[53] = test system: SK-MEL-2 melanoma
[54] = test system: NCI-H522 lung
[55] = test system: UO-31 renal
[56] = test system: SNB-78 CNS
[57] = test system: A498 renal
[58] = test system: DMS 273 small cell lung

`COc1cc(C(=O)Nc2cccc3ccccc23)c(Br)c(OC)c1OC` was tested, and the TGI [1] was > 100 µM, the TGI [2] was > 100 µM and the TGI [3] was > 100 µM. The TGI [4] was > 100 µM, the TGI [5] was > 100 µM and the TGI [6] was > 100 µM. The TGI [7] was > 100 µM, the TGI [8] was > 100 µM and the TGI [9] was > 100 µM. For the same compound, the TGI [10] was > 100 µM, the TGI [11] was > 100 µM and the TGI [12] was > 100 µM. The TGI [13] was > 100 µM, the TGI [14] was > 100 µM and the TGI [15] was > 100 µM. The TGI [16] was > 100 µM, the TGI [17] was > 100 µM and the TGI [18] was > 100 µM. For the same compound, the TGI [19] was > 100 µM, the TGI [20] was 19.5 µM and the TGI [21] was > 100 µM. For the same compound, the TGI [22] was > 100 µM, the TGI [23] was > 100 µM and the TGI [24] was > 100 µM. The TGI [25] was > 100 µM, the TGI [26] was > 100 µM and the TGI [27] was 76.2 µM. For the same compound, the TGI [28] was > 100 µM, the TGI [29] was > 100 µM and the TGI [30] was > 100 µM. For the same compound, the TGI [31] was > 100 µM, the TGI [32] was > 100 µM and the TGI [33] was > 100 µM. For the same compound, the TGI [34] was > 100 µM, the TGI [35] was > 100 µM and the TGI [36] was > 100 µM. For the same compound, the TGI [37] was > 100 µM, the TGI [38] was > 100 µM and the TGI [39] was > 100 µM. For the same compound, the TGI [40] was > 100 µM, the TGI [41] was > 100 µM and the TGI [42] was > 100 µM. For the same compound, the TGI [43] was > 100 µM, the TGI [44] was > 100 µM and the TGI [45] was > 100 µM. The TGI [46] was > 100 µM, the TGI [47] was > 100 µM and the TGI [48] was > 100 µM. The TGI [49] was > 100 µM, the TGI [50] was 13.6 µM and the TGI [51] was > 100 µM. The TGI [52] was 3.1 µM, the TGI [53] was > 100 µM and the TGI [54] was > 100 µM. The TGI [55] was 86.1 µM.

`NCCCNC(=O)c1csc(NC(=O)c2csc(NC(=O)CCCN)n2)n1` was tested, and the TGI [1] was > 100 µM, the TGI [2] was > 100 µM and the TGI [3] was > 100 µM. For the same compound, the TGI [4] was > 100 µM, the TGI [6] was > 100 µM and the TGI [7] was > 100 µM. The TGI [8] was > 100 µM, the TGI [9] was > 100 µM and the TGI [10] was > 100 µM. The TGI [11] was 44 µM, the TGI [13] was > 100 µM and the TGI [14] was > 100 µM. For the same compound, the TGI [16] was > 100 µM, the TGI [17] was > 100 µM and the TGI [18] was > 100 µM. The TGI [19] was > 100 µM, the TGI [20] was > 100 µM and the TGI [21] was > 100 µM. For the same compound, the TGI [22] was > 100 µM, the TGI [23] was > 100 µM and the TGI [24] was > 100 µM. For the same compound, the TGI [25] was > 100 µM, the TGI [26] was > 100 µM and the TGI [27] was > 100 µM. For the same compound, the TGI [28] was > 100 µM, the TGI [56] was > 100 µM and the TGI [29] was > 100 µM. For the same compound, the TGI [30] was > 100 µM, the TGI [31] was > 100 µM and the TGI [32] was > 100 µM. For the same compound, the TGI [33] was > 100 µM, the TGI [57] was > 100 µM and the TGI [34] was > 100 µM. The TGI [35] was > 100 µM, the TGI [36] was > 100 µM and the TGI [37] was > 100 µM. For the same compound, the TGI [39] was > 100 µM, the TGI [58] was > 100 µM and the TGI [40] was > 100 µM. The TGI [41] was > 100 µM, the TGI [42] was > 100 µM and the TGI [43] was > 100 µM. The TGI [44] was > 100 µM, the TGI [45] was > 100 µM and the TGI [46] was > 100 µM. The TGI [47] was > 100 µM, the TGI [48] was > 100 µM and the TGI [49] was > 100 µM. For the same compound, the TGI [50] was > 100 µM, the TGI [51] was > 100 µM and the TGI [52] was > 100 µM. The TGI [53] was > 100 µM, the TGI [54] was > 100 µM and the TGI [55] was > 100 µM.
